# Data taken from patent publication US20130064913A1, “ANTI-INFLAMMATORY BOTANICAL PRODUCTS FOR THE TREATMENT OF METABOLIC SYNDROME AND DIABETES” (Metaproteomics, LLC, priority 2001, published 2013).
# Where two headings read alike, the source gives them in different places. Marks after values point to notes of the source that are not given here.
# Columns and labels:
# [1] = system: LPS-treated 3T3-L1 adipocytes; assay: Adiponectin secretion in LPS/3T3-L1 adipocytes; assay type: cell-based, murine; conditions: 100 ng LPS/ml
# [2] = system: TNFα-treated 3T3-L1 adipocytes; assay: IL-6 secretion from TNFα-treated 3T3-L1 adipocytes; assay type: cell-based, murine; conditions: Mus musculus, 10 ng TNFα/ml; for inhibition at 1 µg/mL: 1.0 μg/ml
# [3] = system: PGE2 synthesis in LPS-stimulated RAW 264.7 cells; assay: PGE2 inhibition in LPS-stimulated RAW 264.7 murine macrophages (Example 1); assay type: cell-based; conditions: for IC50: Mus musculus, RAW264.7; for Relative Potency: category of anti-inflammatory activity based on IC50
# NF-κB = NF-κB DNA binding of nuclear extracts (TransAM NF-κB kit) from LPS-stimulated RAW 264.7 cells; assay type: cell-based, murine; conditions: LPS 4 h; MgRIAA 55 and 14 μg/ml, parthenolide 80 μM, LY294002 25 μM
# Procedure: Nuclear extracts were prepared essentially as described by Dignam, et al [Nucl Acids Res 11:1475-1489, (1983)]. […] Cells were then scraped into a clean tube and processed through three cycles of freeze/thaw. The supernatant layer following centrifugation at 10,000×g for 5 min at 4° C. was the cytoplasmic fraction. […] The nuclear extract fraction was collected as the supernatant layer following centrifugation at 10,000×g for […] at 4° C. NF-kB DNA binding of the nuclear extracts was assessed using the TransAM NF-κB kit from Active Motif (Carlsbad, Calif.) as per manufacturer's instructions. […] Protein concentration was measured (Bio-Rad assay) and 10 μg of nuclear protein extracts were assayed in duplicate.
# COX-2 protein expression = COX-2 protein expression by Western blot in LPS-stimulated RAW 264.7 cells; assay type: cell-based, murine; conditions: 20 hours LPS, versus DMSO solvent control
# Procedure: Densitometry was performed using Kodak®software.
# [4] = system: insulin-resistant 3T3-L1 adipocytes; assay: Adiponectin secretion from insulin-resistant 3T3-L1 adipocytes; assay type: cell-based, murine; conditions: for Adiponectin/IL-6: insulin-resistant model
# Text: For two days, the cells were allowed grow to reach confluence. […] Twenty-four hours later, the supernatant medium was sampled for adiponectin determination. […] The adiponectin secreted into the medium was quantified using the Mouse Adiponectin Quantikine® Immunoassay kit with no modifications (R&D Systems, Minneapolis, Minn.). […] Substituting {relative adiponectin secretion/[concentration]} for the independent variable v/[S] and {relative adiponectin secretion} for the dependant variable {v}, produced a relationship of the form y=mx+b. Maximum adiponectin secretion relative to the solvent control was estimated from the y-intercept, while the concentration of test material necessary for half maximal adiponectin secretion was computed from the negative value of the slope.
# 3T3-L1 adipocytes = assay: Lipogenesis (Oil Red O / BODIPY) in 3T3-L1 adipocytes; assay type: cell-based, murine; conditions: hops compounds 10, 5, 4 or 2 μg/ml, spent hops 50 μg/ml (Example 19)
# [5] = arbitrary category of the median inhibitory concentration, read-out: Relative IC50
# [6] = test material added 90 min before LPS, 18 h, read-out: IC50 (PGE2 inhibition)
SMILES,IC50 [3],"IC50 [3, 5]","IC50 [3, 6]",also measured
Cc1c(C)c2c(c(C)c1O)CCC(C)(COc1ccc(CC3SC(=O)NC3=O)cc1)O2 (centres unmarked) [Troglitazone],,,,Concentration at maximum stimulation of adiponectin secretion [1]: 0.625 µg/mL; inhibition at 1 µg/mL [2]: 34%
"Cc1ccc(-c2cc(C(F)(F)F)nn2-c2ccc(S(N)(=O)=O)cc2)cc1 [Celecoxib, celecoxib]",,,,% Stimulation of adiponectin secretion (maximum) [1]: failed to induce adiponectin secretion
COc1ccc2cc3[n+](cc2c1OC)CCc1cc2c(cc1-3)OCO2 [Berberine],2 to 7 µg/mL,,,
"O=c1c(-c2ccc(O)cc2)coc2cc(O)cc(O)c12 [Genistein, genistein]",0.3 to 1.7 µg/mL,1 µg/mL,1.7 µg/mL,Relative Potency [3]: high
"O=c1c(O)c(-c2ccc(O)c(O)c2)oc2cc(O)ccc12 [Fisetin, fisetin]",> 12 µg/mL,> 12 µg/mL,> 12 µg/mL,
"O=c1cc(-c2ccc(O)c(O)c2)oc2cc(O)cc(O)c12 [Luteolin, luteolin]",2 to 7 µg/mL,2 to 6 µg/mL,3.9 µg/mL,
CC(=O)Oc1ccccc1C(=O)O [Aspirin],,,,% Stimulation of adiponectin secretion (maximum) [1]: failed to induce adiponectin secretion
O=c1c(O)c(-c2ccc(O)c(O)c2)oc2cc(O)cc(O)c12 [Quercetin],0.3 to 1.7 µg/mL,1 µg/mL,0.82 µg/mL,Relative Potency [3]: high
"COc1ccc2c(c1)c(CC(=O)O)c(C)n2C(=O)c1ccc(Cl)cc1 [Indomethacin, indomethacin]",,,,% Stimulation of adiponectin secretion (maximum) [1]: 9%
"O=C(O)c1ccccc1O [Salicylic acid, salicylic acid]",,,,% Stimulation of adiponectin secretion (maximum) [1]: failed to induce adiponectin secretion
"O=c1cc(-c2ccc(O)cc2)oc2cc(O)cc(O)c12 [Apigenin, apigenin]",2 to 7 µg/mL,2 to 6 µg/mL,2.8 µg/mL,
C=C1C(=O)O[C@H]2[C@H]1CC/C(C)=C/CC[C@@]1(C)O[C@@H]21 [Parthenolide],,,,"NF-κB DNA binding, in words (NF-κB): significant reduction; reduction of COX-2 protein expression (COX-2 protein expression): 22.5%"
"CC1(C)CC[C@]2(C(=O)O)CC[C@]3(C)C(=CC[C@@H]4[C@@]5(C)CC[C@H](O)C(C)(C)[C@@H]5CC[C@]43C)[C@@H]2C1 [Oleanolic acid, oleanolic acid]",,1 µg/mL,,
"O=C1C[C@@H](c2ccc(O)cc2)Oc2cc(O)cc(O)c21 [Naringenin, naringenin]",> 12 µg/mL,> 12 µg/mL,> 12 µg/mL,
CC(C)CCC1=C(O)C(C(=O)C(C)C)=C(O)C(CCC(C)C)(CCC(C)C)C1=O [Hexahydrocolupulone],,,,"Adiponectin/IL-6 ([4]; 25 μg/ml): 1.36#; Adiponectin/IL-6 ([4]; 50 μg/ml): 0.60#; concentration at which maximal adiponectin secretion was observed ([4]; of the four doses tested): 12.5 µg/mL; adipogenic response, in words (3T3-L1 adipocytes): failed to elicit a lipogenic response greater than the solvent controls"
"O=c1c(O)c(-c2ccccc2)oc2cc(O)cc(O)c12 [Galangin, galangin]",0.3 to 1.7 µg/mL,1 µg/mL,1.4 µg/mL,Relative Potency [3]: high
"O=c1c(O)c(-c2ccc(O)cc2O)oc2cc(O)cc(O)c12 [Morin, morin]",> 12 µg/mL,> 12 µg/mL,> 12 µg/mL,
"COc1cc(/C=C/C(=O)CC(=O)/C=C/c2ccc(O)c(OC)c2)ccc1O [Curcumin, curcumin]",2 to 7 µg/mL,2 to 6 µg/mL,,
"CC(C)Oc1ccc2c(=O)c(-c3ccccc3)coc2c1 [Ipriflavone, ipriflavone]",2 to 7 µg/mL,2 to 6 µg/mL,6.3 µg/mL,
"Oc1ccc(C=Cc2cc(O)cc(O)c2)cc1 [Resveratrol, resveratrol]",2 to 7 µg/mL,,,
O=c1cc(N2CCOCC2)oc2c(-c3ccccc3)cccc12 [LY294002],,,,"NF-κB DNA binding, in words (NF-κB): modest decrease"
CCc1ccc(CCOc2ccc(CC3SC(=O)NC3=O)cc2)nc1 (centres unmarked) [Pioglitazone],,,,Adiponectin Index (maximum stimulation) ([1]; relative to LPS control): 1.12*
CN(C)C(=N)N=C(N)N [Metformin],,,,inhibition at 1 µg/mL [2]: 9%; inhibition at 5 µg/mL ([2]; 5.0 μg/ml): 4%; inhibition at 10 µg/mL ([2]; 10 μg/ml): 22%; inhibition at 50 µg/mL ([2]; 50 μg/ml): 22%
